What all share (assay): microbe, parasite or virus in culture
Holding throughout (format): cell-based

In assay [1] the test system is HCV 1a RLuc cells (dicistronic genotype 1a H77 replicon, RLuc reporter). The settings on record: Hepatitis C virus, genotype 1a H77 replicon, read-out: 1a. Here is the method: (§1) Evaluation of cell-based anti-HCV activity: Antiviral potency (EC50) was determined using a Renilla luciferase (RLuc)-based HCV replicon reporter assay. To perform the assay for genotype 1 and 2a JFH-1, HCV 1b RLuc cells (harboring a dicistronic genotype 1b Con1 replicon that encodes a RLuc reporter), or HCV 1a RLuc cells (harboring a dicistronic genotype 1a H77 replicon that encodes a RLuc reporter), or HCV 2a JFH-1 Rluc cells (harboring a dicistronic genotype 2a JFH-1 replicon that encodes a RLuc reporter) were dispensed into 384-well plates. To perform the assay for genotype 2a (with M31 present) or 2b, HCV 2a Rluc or 2b Rluc cells (both with M31 present) harboring a dicistronic NS5A chimeric genotype 2a JFH-1 replicon that encodes a RLuc reporter and either genotype 2a J6 strain NS5A gene or genotype 2b MD2b-1 NS5A gene (based on Los Alamos HCV database isolates, both with M31 present) respectively, were dispensed into 384-well plates. To perform the assay for genotype 3 and 4, HCV 3a RLuc or 4a Rluc cells harboring a dicistronic NS5A chimeric genotype 1b Con1 replicon that encodes a RLuc reporter and either a consensus genotype 3a NS5A gene or genotype 4a NS5A gene (based on Los Alamos HCV database isolates) respectively, were dispensed into 384-well plates. Compounds were re-suspended in DMSO at a concentration of 10 mM and serially diluted in DMSO either manually or using an automated pipeting instrument. Serially diluted compounds were mixed with cell culture media and added to the seeded cells. […] 72 hours later, cells were lysed and Renilla luciferase activity quantified as recommended by the manufacturer (Promega-Madison, Wis.). Non-linear regression was performed to calculate EC50 values.
A general note: A replicon is a self-replicating genome or part of one, used to study replication in cells.

Assay [2] has as its system HCV 1b RLuc cells (dicistronic genotype 1b Con1 replicon, RLuc reporter). To be noted: Hepatitis C virus, read-out: 1b (nM). The protocol: as §1
Assay [3] has as its system HCV 2a JFH-1 Rluc cells (dicistronic genotype 2a JFH-1 replicon, RLuc reporter). To be noted: Hepatitis C virus, genotype 2a JFH-1 replicon, read-out: 2a JFH. The protocol: as §1
Assay [4] deals with HCV 3a RLuc cells (NS5A chimeric genotype 1b Con1 replicon with consensus genotype 3a NS5A gene). The settings on record: Hepatitis C virus. The protocol: as §1
Where [5] appears, read: read-out: 3a, genotype 3a NS5A chimeric 1b Con1 replicon.

Read-outs that look alike come from different tables or passages of the source.

Turning to `COC(=O)N[C@H](C(=O)N1CCC[C@H]1c1ncc(-c2ccc3cc(-c4ccc(-c5cnc([C@@H]6C[C@@H](F)CN6C(=O)[C@H](NC(=O)OC)c6ccccc6)[nH]5)cc4)ccc3c2)[nH]1)C(C)C` [Example 139], the EC50 in assay [1] (RLuc reporter) was 0.001 to 0.999 nM; in assay [2], 0.004 nM; in assay [3] (RLuc reporter), 1 to 44 nM; in assay [4] (setting [5]) it was 0.001 to 0.99 nM.
The corresponding values for `COC(=O)NC(C(=O)N1CCC[C@H]1c1ncc(-c2ccc(-c3ccc4cc(-c5cnc([C@@H]6CCCN6C(=O)[C@@H](NC(=O)OC)C(C)C)[nH]5)ccc4c3)cc2)[nH]1)c1cccc(C(F)(F)F)c1` (stereo partly shown) [Example 146] are 1 to 44 nM, 0.048 nM, 1 to 44 nM and greater than 5 nM.
Regarding `COC(=O)N[C@H](C(=O)N1CCC[C@H]1c1ncc(-c2ccc(-c3ccc(-c4ccc(-c5cnc([C@@H]6CCCN6C(=O)[C@H](NC(=O)OC)c6ccccc6)[nH]5)cc4)cc3)cc2)[nH]1)C(C)C` [Example 192], the EC50 in assay [1] (RLuc reporter) is 0.001 to 0.999 nM; in assay [2] it was 0.004 nM; in assay [3] (RLuc reporter), 0.001 to 0.999 nM; in assay [4] (setting [5]), 0.001 to 0.99 nM.
Take `COC(=O)NC(C(=O)N1C[C@H](C)C[C@H]1c1ncc(-c2ccc(-c3ccc4cc(-c5cnc([C@@H]6CCCN6C(=O)[C@@H](NC(=O)OC)C6CCOCC6)[nH]5)ccc4c3)cc2)[nH]1)c1cccnc1` (stereo partly shown) [Example 214]: the EC50 in assay [1] (RLuc reporter) was 0.001 to 0.999 nM; in assay [2] it was 0.06 nM; in assay [3] (RLuc reporter) it was 0.001 to 0.999 nM; in assay [4] (setting [5]), 0.001 to 0.99 nM.
As for `COC(=O)N[C@H](C(=O)N1CCC[C@H]1c1nc2ccc3cc(-c4ccc5cc(-c6cnc([C@@H]7CCCN7C(=O)[C@H](NC(=O)OC)c7ccccc7)[nH]6)ccc5c4)ccc3c2[nH]1)C1CCOCC1` [Example 175], the EC50 is 0.001 to 0.999 nM in assay [1] (RLuc reporter), 0.011 nM in assay [2], 0.001 to 0.999 nM in assay [3] (RLuc reporter) and 0.001 to 0.99 nM in assay [4] (setting [5]).
For the compound `COC(=O)N[C@H](C(=O)N1CCC[C@H]1c1ncc(-c2ccc3cc(-c4ccc5c(ccc6nc([C@@H]7CCCN7C(=O)[C@H](NC(=O)OC)c7ccccc7)[nH]c65)c4)ccc3c2)[nH]1)C1CCOCC1` [Example 173], the EC50 was 0.001 to 0.999 nM in assay [1] (RLuc reporter), 0.024 nM in assay [2], 0.001 to 0.999 nM in assay [3] (RLuc reporter) and 0.001 to 0.99 nM in assay [4] (setting [5]).
Regarding `COC(=O)N[C@H](C(=O)C1CCSC1c1ncc(-c2ccc(-c3ccc4cc(-c5cnc([C@@H]6CCCN6C(=O)[C@H](NC(=O)OC)c6ccccc6)[nH]5)ccc4c3)cc2)[nH]1)C(C)C` (stereo partly shown) [Example 131], the EC50 is 0.001 to 0.999 nM in assay [1] (RLuc reporter), 0.009 nM in assay [2], 0.001 to 0.999 nM in assay [3] (RLuc reporter) and 0.001 to 0.99 nM in assay [4] (setting [5]).
Turning to `COC(=O)N[C@H](C(=O)N1CCC[C@H]1c1ncc(-c2ccc(-c3ccc4cc(-c5cnc([C@@H]6CCCN6C(=O)[C@@H](NC(=O)OC)C(C)C)[nH]5)ccc4c3)cc2)[nH]1)c1ccc(Cl)cc1` [Example 106], the EC50 in assay [1] (RLuc reporter) was 1 to 44 nM; in assay [2] it was 0.024 nM; in assay [3] (RLuc reporter) it was 1 to 44 nM; in assay [4] (setting [5]), 1 to 4.99 nM.
As to `COC(=O)N[C@H](C(=O)N1CCC[C@H]1c1ncc(-c2ccc(-c3ccc4cc(-c5cnc([C@@H]6CCCN6C(=O)C(c6ccccc6)N6CCCC6)[nH]5)ccc4c3)cc2)[nH]1)C(C)C` (stereo partly shown) [Example 125], the EC50 in assay [1] (RLuc reporter) was 0.001 to 0.999 nM; in assay [2], 0.032 nM; in assay [3] (RLuc reporter) it was 0.001 to 0.999 nM; in assay [4] (setting [5]) it was 0.001 to 0.99 nM.
As for `COC(=O)N[C@H](C(=O)N1CCC[C@H]1c1ncc(-c2ccc3cc(-c4ccc5c(c4)CCc4nc([C@@H]6CCCN6C(=O)[C@H](NC(=O)OC)c6ccccc6)[nH]c4-5)ccc3c2)[nH]1)C(C)C` [Example 142], the EC50 in assay [1] (RLuc reporter) is 0.001 to 0.999 nM; in assay [2], 0.013 nM; in assay [3] (RLuc reporter) it was 0.001 to 0.999 nM; in assay [4] (setting [5]), 0.001 to 0.99 nM.
With `COC(=O)NC(C(=O)N1CCC[C@H]1c1ncc(-c2ccc3c(c2)C(F)(F)c2cc(-c4ccc(-c5cnc([C@@H]6CCCN6C(=O)[C@H](NC(=O)OC)c6ccccc6)[nH]5)cc4)ccc2-3)[nH]1)C(C)C` (stereo partly shown) [Example 194], the EC50 was 1 to 44 nM in assay [1] (RLuc reporter), 0.01 nM in assay [2], 1 to 44 nM in assay [3] (RLuc reporter) and 1 to 4.99 nM in assay [4] (setting [5]).
Regarding `COC(=O)N[C@H](C(=O)N1CCC[C@H]1c1ncc(-c2ccc3cc(-c4ccc5c(c4)CCc4nc([C@@H]6CCCN6C(=O)[C@H](NC(=O)OC)c6ccccc6)[nH]c4-5)ccc3c2)[nH]1)C1CCOCC1` [Example 170], the EC50 in assay [1] (RLuc reporter) was 0.001 to 0.999 nM; in assay [2], 0.032 nM; in assay [3] (RLuc reporter), 0.001 to 0.999 nM; in assay [4] (setting [5]), 0.001 to 0.99 nM.
Consider `COC(=O)N[C@H](C(=O)N1CCCC1c1ncc(-c2ccc3cc(-c4ccc(-c5cnc([C@@H]6CCCN6C(=O)[C@H](NC(=O)OC)c6ccccc6)[nH]5)cc4)ccc3c2)[nH]1)C1CCOCC1` (stereo partly shown) [Example 153], for which the EC50 in assay [1] (RLuc reporter) is 0.001 to 0.999 nM; in assay [2], 0.012 nM; in assay [3] (RLuc reporter), 0.001 to 0.999 nM; in assay [4] (setting [5]) it was 0.001 to 0.99 nM.
With `COC(=O)N[C@H](C(=O)N1C[C@H](C)C[C@H]1c1ncc(-c2ccc3cc(-c4ccc(-c5cnc([C@@H]6CCCN6C(=O)[C@H](NC(=O)OC)c6ccccc6)[nH]5)cc4)ccc3c2)[nH]1)C(C)C` [Example 132], the EC50 in assay [1] (RLuc reporter) was 0.001 to 0.999 nM; in assay [2] it was 0.003 nM; in assay [3] (RLuc reporter), 0.001 to 0.999 nM; in assay [4] (setting [5]), 0.001 to 0.99 nM.
For `COC(=O)N[C@H](C(=O)N1CCC[C@H]1c1nc2c([nH]1)COc1cc(-c3ccc4cc(-c5c[nH]c([C@@H]6CCCN6C(=O)[C@@H](c6ccccc6)N(C)C)n5)ccc4c3)ccc1-2)C1CCOCC1` [Example 182], the EC50 in assay [1] (RLuc reporter) was 0.001 to 0.999 nM; in assay [2] it was 0.05 nM; in assay [3] (RLuc reporter), 0.001 to 0.999 nM; in assay [4] (setting [5]), 0.001 to 0.99 nM.
As for `COC(=O)N[C@H](C(=O)N1CC2(C[C@H]1c1ncc(-c3ccc(-c4ccc5cc(-c6cnc([C@@H]7CCCN7C(=O)[C@H](NC(=O)OC)c7ccccc7)[nH]6)ccc5c4)cc3)[nH]1)OCCO2)C(C)C` [Example 35], the EC50 was 0.001 to 0.999 nM in assay [1] (72 h, Table 2, 72 hours); 0.008 nM in assay [2] (72 h); 0.001 to 0.999 nM in assay [3] (72 h, Table 2, 72 hours); 0.001 to 0.99 nM in assay [4] (read-out: 3a, Table 2, genotype 3a NS5A chimeric replicon).
Regarding `COC(=O)NC(C(=O)N1CCC[C@@]1(F)c1ncc(-c2ccc(-c3ccc4cc(-c5cnc([C@@H]6CCCN6C(=O)[C@@H](NC(=O)OC)C(C)C)[nH]5)ccc4c3)cc2)[nH]1)c1ccc2c(c1)OCO2` (stereo partly shown) [Example 143], the EC50 in assay [1] (RLuc reporter) was 0.001 to 0.999 nM; in assay [2], 0.025 nM; in assay [3] (RLuc reporter), 1 to 44 nM; in assay [4] (setting [5]) it was greater than 5 nM.
The like results for `COC(=O)N[C@H](C(=O)N1CCC[C@H]1c1ncc(-c2ccc(-c3ccc4cc(-c5cnc([C@@H]6CCCN6C(=O)[C@@H](NC(=O)OC)C(C)C)[nH]5)ccc4c3)cc2)[nH]1)c1ccccc1OC` [Example 105] were, in that order, 1 to 44 nM, 0.042 nM, 1 to 44 nM and 1 to 4.99 nM.
The corresponding values for `CCN(C1CC1)[C@@H](C(=O)N1CCC[C@H]1c1nc(-c2ccc(-c3ccc4cc(-c5c[nH]c([C@@H]6CCCN6C(=O)[C@@H](NC(=O)OC)C(C)C)n5)ccc4c3)cc2)c[nH]1)c1ccccc1` [Example 168] are 1 to 44 nM, 0.01 nM, 1 to 44 nM and 0.001 to 0.99 nM.
The corresponding values for `COC(=O)N[C@H](C(=O)N1CCC[C@H]1c1ncc(-c2ccc(-c3ccc4cc(-c5cnc([C@@H]6CCCN6C(=O)[C@@H](NC(=O)OC)C(C)C)[nH]5)ccc4c3)cc2)[nH]1)c1ccc(OC)cc1` [Example 108] are 0.001 to 0.999 nM, 0.028 nM, 1 to 44 nM and greater than 5 nM.
On to `COC(=O)N[C@H](C(=O)N1CCC[C@H]1c1ncc(-c2ccc3cc(-c4ccc(-c5cnc([C@@H]6CCCN6C(=O)[C@H](NC(=O)OC)c6cccc(PC)c6)[nH]5)cc4)ccc3c2)[nH]1)C(C)C` (stereo partly shown) [Example 185], for which the EC50 was 1 to 44 nM in assay [1] (RLuc reporter), 0.008 nM in assay [2], 0.001 to 0.999 nM in assay [3] (RLuc reporter) and 0.001 to 0.99 nM in assay [4] (setting [5]).
`COC(=O)NC(C(=O)N1CCC[C@H]1c1ncc(-c2ccc(-c3ccc4cc(-c5cnc([C@@H]6CCCN6C(=O)[C@@H](NC(=O)OC)C(C)C)[nH]5)ccc4c3)cc2)[nH]1)c1ccccn1` (stereo partly shown) [Example 183]: the EC50 was 0.001 to 0.999 nM in assay [1] (RLuc reporter), 0.013 nM in assay [2], 0.001 to 0.999 nM in assay [3] (RLuc reporter) and 1 to 4.99 nM in assay [4] (setting [5]).

Values taken from patent publication US10344019B2 (priority 2010, dated 2019).
